The text below walks through data of patent US10882853B2, “Tyrosine kinase inhibitor and application thereof” (LaNova Medicines Limited, priority 2016, dated 2021).

One may read the IC50 as the concentration at which inhibition is half-maximal.

Assay [1] relates to human colon cancer cells HCT116. In words: Inhibition on the proliferation of tumor cells (CCK8), HCT116. The format is cell-based. The following applies: for IC50: read-out: HCT116 IC50. As for the experimental part: (§1) (1) Culture cells: The tumor cells (such as human lung adenocarcinoma cells HCC78, human malignant glioma cells U87MG, human gastric cancer cells MKN-45, human umbilical vein endothelial cells HUVEC, human lung adenocarcinoma cells A549, etc.) were cultured in culture medium; culture conditions: 37° C., 5% CO2.
(§2) (2) Inoculate cells: The cells at the exponential growth phase and in good state were taken, and an appropriate amount of pancreatin for cell dissociation was added thereto, the cells were collected for centrifugation, and the supernatant was discarded. The cells were resuspended with the culture solution containing serum, then counted, and the cell suspensions were taken and inoculated in a 96-hole plate at 3000/hole, 90 μL/hole. The culture plate was transferred into a constant temperature CO2 incubator, and cultured under the conditions of 37° C., 5% CO2 and saturated humidity for 24 h.
(§3) (3) Add the test compounds: 10 μL/hole, culture for 72 h, 3 parallel holes were set for each group.

Assay [2] deals with human lung adenocarcinoma cells A549. In words: Inhibition on the proliferation of tumor cells (CCK8), A549. The class given is cell-based. Conditions: for IC50: read-out: A549 IC50. How it is done:
as §1, §2, §3

Assay [3] relates to human malignant glioma cells U87MG. The assay can be described thus: Inhibition on the proliferation of tumor cells (CCK8), U87MG. The class given is cell-based. The following applies: read-out: U87MG IC50. How it is done: as §1, §2, §3
(§4) (4) Determine the results: After 72 h of action for the compounds, 10 μL/hole CCK8 was added, incubated in the incubator for an appropriate time, and the absorbance was measured at 450 nm.

Assay [4] concerns human gastric cancer cells MKN-45. The assay can be described thus: Inhibition on the proliferation of tumor cells (CCK8), MKN-45. The format is cell-based. Conditions: read-out: MKN-45 IC50. How it is done: as §1, §2, §3, §4
The test system of assay [5] is human ovarian cancer cells SK-OV-3. In words: Inhibition on the proliferation of tumor cells (CCK8), SK-OV-3. The format is cell-based. Conditions: for IC50: read-out: SK-OV-3 IC50. As for the experimental part:
as §1, §2, §3

Assay [6] concerns human lung adenocarcinoma cells HCC78. In words: Inhibition on the proliferation of tumor cells (CCK8), HCC78. The format is cell-based. Conditions: read-out: HCC78 IC50. How it is done: as §1, §2, §3
In assay [7] the target is KDR (Homo sapiens (Human), UniProt P35968). In words: Inhibitory activity on KDR kinase (HTRF, XL-665/antibody). The format is biochemical. How it is done: The compounds in the above Examples are used for detecting and screening the inhibitory activities of C-MET and KDR kinase.
KDR, sequence (P35968 20-1356): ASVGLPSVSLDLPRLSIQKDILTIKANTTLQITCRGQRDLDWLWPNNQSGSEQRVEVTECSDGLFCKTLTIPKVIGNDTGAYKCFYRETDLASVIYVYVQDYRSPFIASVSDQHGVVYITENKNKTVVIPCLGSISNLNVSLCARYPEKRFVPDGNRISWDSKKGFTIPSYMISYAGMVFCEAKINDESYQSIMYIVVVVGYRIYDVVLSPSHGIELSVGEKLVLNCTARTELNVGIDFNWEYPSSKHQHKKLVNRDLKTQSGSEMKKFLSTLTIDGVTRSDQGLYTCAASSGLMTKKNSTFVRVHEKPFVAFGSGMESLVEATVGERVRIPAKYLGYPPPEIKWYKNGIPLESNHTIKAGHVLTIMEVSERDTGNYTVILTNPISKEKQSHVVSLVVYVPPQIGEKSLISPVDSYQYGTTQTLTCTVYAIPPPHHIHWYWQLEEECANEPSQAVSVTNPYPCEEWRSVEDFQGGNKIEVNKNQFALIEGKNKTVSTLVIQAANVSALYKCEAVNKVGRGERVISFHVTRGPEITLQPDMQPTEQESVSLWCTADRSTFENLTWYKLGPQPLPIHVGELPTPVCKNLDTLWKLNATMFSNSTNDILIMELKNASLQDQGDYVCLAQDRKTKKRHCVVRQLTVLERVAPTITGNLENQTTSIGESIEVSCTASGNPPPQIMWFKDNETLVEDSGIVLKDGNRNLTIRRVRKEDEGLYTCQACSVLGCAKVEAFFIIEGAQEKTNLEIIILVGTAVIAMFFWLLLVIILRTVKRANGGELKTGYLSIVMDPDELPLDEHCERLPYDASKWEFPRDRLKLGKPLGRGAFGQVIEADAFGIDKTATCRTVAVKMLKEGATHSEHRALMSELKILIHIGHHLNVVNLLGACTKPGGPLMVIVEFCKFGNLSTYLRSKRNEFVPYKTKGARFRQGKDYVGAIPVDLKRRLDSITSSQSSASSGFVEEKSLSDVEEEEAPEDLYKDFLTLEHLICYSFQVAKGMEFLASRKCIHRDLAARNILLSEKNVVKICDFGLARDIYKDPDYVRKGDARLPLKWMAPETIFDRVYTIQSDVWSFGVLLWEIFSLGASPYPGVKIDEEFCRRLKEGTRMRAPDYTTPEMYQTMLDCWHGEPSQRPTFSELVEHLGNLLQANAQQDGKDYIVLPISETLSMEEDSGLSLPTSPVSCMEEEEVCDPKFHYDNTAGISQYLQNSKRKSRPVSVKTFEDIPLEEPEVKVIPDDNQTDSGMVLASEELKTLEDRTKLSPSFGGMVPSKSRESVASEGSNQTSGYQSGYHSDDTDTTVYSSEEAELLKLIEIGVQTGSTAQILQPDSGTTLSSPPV
(2) Incubated at 25° C. for 5 min;
(3) 2 μL of ATP/substrate/MgCl2/MnCl2/SEB/DTT mixed solution were added into the holes;
(4) Centrifugated at 1000 rpm for 1 min, and incubated by vibration at 30° C. for 30 min;
(6) Incubated at 25° C. for 1 h;
(8) The data was analyzed according to the instructions of the kit, and the fitting calculation of IC50 was performed using GraphPad Prism5.

The structures appear in SMILES notation. Where two headings read alike, the source gives them in different places.

Regarding `COc1cc2c(Oc3ccc(NC(=O)C4(C(=O)Nc5ccc(F)cc5)CC4)cc3F)ccnc2cc1OCCCN1CCOCC1` [Foretinib, reference compound], the IC50 in assay [1] (Homo sapiens, HCT-116, 72 h) came out at 2.06 µM; in assay [2] (Homo sapiens, A549, 72 h) it was 2.83 µM; in assay [3] (Homo sapiens, U-87 MG, 72 h) it was 1.65 µM; in assay [4] (Homo sapiens, MKN-45, 72 h) it was 1.87 µM; in assay [5] (Homo sapiens, SK-OV-3, 72 h) it was 17.2 µM.

In the case of `COc1cc2c(Oc3ccc(NC(=O)C4(C(=O)Nc5ccc(F)cc5)CC4)cc3F)ccnc2cc1OCC1CC(N2CCOCC2)C1` (centres unmarked) [Compound 5], the IC50 in assay [6] (Table 4 (FIG. 4), 72 h, CCK8) is 0.0442 µM; in assay [1] (72 h, CCK8), 1.66 µM; in assay [2] (72 h, CCK8) it was 1.6 µM; in assay [7], 0.0399 µM; in assay [3] (72 h, CCK8), 1.14 µM; in assay [4] (72 h, CCK8) it was 1.26 µM. The concentration for half-maximal inhibition (IC50) in assay [5] (72 h, CCK8) came out at 3.49 µM.

`COc1cc2c(Oc3ccc(NC(=O)C4(C(=O)Nc5ccc(F)c(F)c5)CC4)cc3F)ccnc2cc1OCCC[N+]1(C)CCOCC1` [For-Methyl, reference compound]: the IC50 in assay [6] (Homo sapiens, HCC78, 72 h) was over 10 µM. Further, the “HCT116 IC50” value in assay [1] is “No inhibition”. The “A549 IC50” value in assay [2] is “No inhibition”. Also, in assay [5], the “SK-OV-3 IC50” value is “No inhibition”.

In the case of `COc1cc2c(Oc3ccc(NC(=O)C4(C(=O)Nc5ccc(F)cc5)CC4)cc3F)ccnc2cc1OC1CC(N2CCOCC2)C1` (centres unmarked) [Compound 10, N-p-fluorophenyl-N-3-fluoro-4-[6-methoxyl-7-(3-morpholine-cyclobutyl)oxyquinoline-4-]oxyphenyl cyclopropyl-1,1-dimethyl formamide], the IC50 was 0.107 µM in assay [6]; 2.6 µM in assay [1]; 4.4 µM in assay [2]; 0.0642 µM in assay [7]; 1.59 µM in assay [3]; 3.21 µM in assay [4]. For the same compound, the IC50 in assay [5] amounted to 7.85 µM.
